Measurements: patent US20260035339A1, “TETRAHYDRONAPHTHALENE DERIVATIVE” (ATRANSEN PHARMA LTD., priority 2022, published 2026)

Assays:
human LAT1 = human LAT1 (Homo sapiens, UniProt Q01650); experiment: [14C]L-leucine uptake inhibition test using human-LAT1 stably expressing HEK293 cell line; type: cell-based; set-up: having full-length cDNA of human LAT1 or LAT2 inserted under a promoter of CMV; expressed in transfected cells; key to Assay Data: degree of [14C]L-leucine uptake inhibition compared with BCH: a test compound having a higher inhibitory effect than BCH is denoted by A; a test compound having the same inhibitory effect as BCH is denoted by B; a test compound having a lower inhibitory effect than BCH is denoted by C; conditions: for Assay Data: degree of [14C]L-leucine uptake inhibition compared with BCH: compound (racemic form) and BCH at 0.1, 1.0, 10 μM, 1 μM [14C]L-leucine, 1 minute, Na+-free HBSS
Text: HEK293 cells stably expressing human LAT1 and LAT2 were produced, respectively.
A shuttle vector DNA (LAT1: pcDNA3.1(+) -hLAT1, LAT2: pcDNA3.1(+) -hLAT2; expression vector pcDNA3.1 (+) was produced by Invitrogen Corp.) having ampicillin and neomycin resistance markers and having full-length cDNA of human LAT1 or LAT2 inserted under a promoter of CMV (cytomegalovirus) was constructed. This vector was transfected into the HEK293 cells by a method using Lipofectamine (registered trademark) 2000 (Invitrogen Corp.) according to the manufacturer's instructions. Thereafter, stably expressing cell clones of transgene were selected by a limiting dilution method in the presence of 0.9 mg/mL of Geneticin (registered trademark), and among the obtained cell clones, cell clones having a high uptake of [^14C]L-leucine and maintaining stable expression even after 10 passages were obtained. These cells were used for evaluating affinity and selectivity for LAT1 and LAT2.
1-1. It has been confirmed that LAT1 is responsible for L-leucine uptake in the absence of sodium ions in the human-LAT1 stably expressing HEK293 cell line. The human-LAT1 stably expressing HEK293 cell line was seeded in a 24-well plate at 1×10^5 Cell/Well, and the [^14C]L-leucine uptake inhibition test using the compound was performed after 48 hours. After the medium was removed and the cells were washed with Hank's balanced salt solution (Na^+-free HBSS) not containing sodium ions, the cells were cultured in Na^+-free HBSS for 10 minutes. Thereafter, 1 μM of [^14C]L-leucine was taken up in Na^+-free HBSS in the presence of a test compound (0.1, 1.0, 10, 0 μM in each case), which is a racemic form, for 1 minute, and then the cells were washed three times with ice-cooled Na^+-free HBSS. To the well, 500 μL of 1 M NaOH was added, and after 30 minutes, the cells were lysed, and the cell lysate was collected. The amount of [^14C]L-leucine in the cell lysate was determined using a liquid scintillator. The amount of protein in the cell lysate was measured using BCA Assay Kit (Thermofisher Scientific), and the uptake amount of [^14C]L-leucine per 1 mg of protein in the cell per minute was calculated.
The degree of LAT1 inhibition of the compound obtained in the present invention was compared with BCH (BCH, 2-aminobicyclo-(2,2,1)-heptane-2-carboxylic acid), which is an existing LAT1 inhibitor. In the [^14C]L-leucine uptake inhibition test described above, the degrees of inhibition of [^14C]L-leucine uptake inhibition using the compound (racemic form) obtained in Examples and BCH (0.1, 1.0, 10, 0 μM for both) were compared. […] In the table, a test compound having a higher inhibitory effect than BCH is denoted by A, a test compound having the same inhibitory effect as BCH is denoted by B, and a test compound having a lower inhibitory effect than BCH is denoted by C.

[1] = test system: Mouse colorectal cancer-derived CT26 cells; experiment: Cell proliferation inhibitory effect using mouse colorectal cancer cells (CCK-8 assay); type: cell-based; conditions: 72 hours compound treatment, read-out: Evaluation of IC50 (proliferation inhibition rate of 50%)
Procedure: Mouse colorectal cancer-derived CT26 cells were adjusted to […], seeded in a 96-well plate at 1000 cells/well, and cultured in a 10% fetal bovine serum-added RPMI 1640 medium at 5% CO2 and 37° C. The culture medium was changed 24 hours after the start of the culture, and the medium containing the compound of Example was replaced to examine the action of the compound on cell proliferation. As the compound, a concentration of 0.01, 0.03, 0.1, 0.3, 1, 3, 10, or 30 μM was used. As a control, the cells were cultured in a medium containing no compound. The number of cells was evaluated by CCK-8 assay (Cell Counting Kit-8, DOJINDO LABORATORIES) 72 hours after the start of the compound treatment, and the compound concentration (IC50 value) giving a proliferation inhibition rate of 50% as compared with the control was calculated.

human LAT1, sequence (Q01650 whole entry): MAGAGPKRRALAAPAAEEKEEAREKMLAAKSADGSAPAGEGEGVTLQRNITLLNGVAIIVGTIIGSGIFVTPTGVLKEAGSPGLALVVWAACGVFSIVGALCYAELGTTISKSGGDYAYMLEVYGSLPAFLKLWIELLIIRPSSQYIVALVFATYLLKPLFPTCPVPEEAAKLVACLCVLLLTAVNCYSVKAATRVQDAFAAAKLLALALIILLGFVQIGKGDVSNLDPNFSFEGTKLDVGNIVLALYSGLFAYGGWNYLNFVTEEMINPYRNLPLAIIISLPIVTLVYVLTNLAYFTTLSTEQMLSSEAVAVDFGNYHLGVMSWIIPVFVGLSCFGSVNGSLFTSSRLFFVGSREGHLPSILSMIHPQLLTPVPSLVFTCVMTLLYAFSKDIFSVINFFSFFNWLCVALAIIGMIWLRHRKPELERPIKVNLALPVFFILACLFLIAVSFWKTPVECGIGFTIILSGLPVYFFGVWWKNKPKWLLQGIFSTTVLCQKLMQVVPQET
human LAT1, sequence (P08195 102-630 partner): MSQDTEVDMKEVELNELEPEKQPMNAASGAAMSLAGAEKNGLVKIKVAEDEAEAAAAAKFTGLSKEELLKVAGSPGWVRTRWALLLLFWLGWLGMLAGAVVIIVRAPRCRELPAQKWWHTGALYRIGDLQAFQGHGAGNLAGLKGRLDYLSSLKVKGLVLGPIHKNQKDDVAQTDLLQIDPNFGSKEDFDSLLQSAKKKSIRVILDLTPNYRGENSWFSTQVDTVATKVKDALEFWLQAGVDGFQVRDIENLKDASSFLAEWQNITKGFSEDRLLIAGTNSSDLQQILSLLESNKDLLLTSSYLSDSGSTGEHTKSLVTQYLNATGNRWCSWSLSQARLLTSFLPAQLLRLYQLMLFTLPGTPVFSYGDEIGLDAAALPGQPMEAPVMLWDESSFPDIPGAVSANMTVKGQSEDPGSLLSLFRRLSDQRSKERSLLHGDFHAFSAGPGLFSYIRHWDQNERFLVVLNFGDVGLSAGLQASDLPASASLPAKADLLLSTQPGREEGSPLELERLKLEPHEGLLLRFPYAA

Row | SMILES | [14C]L-leucine uptake inhibition via LAT1 (in words) (human LAT1; 0.1 to 10 μM) | Assay Data: degree of [14C]L-leucine uptake inhibition compared with BCH (human LAT1) | IC50 [1] [µM] | LAT1 inhibitory effect, compounds singled out (in words) (human LAT1; same test as Table 1)
1 | NC1(C(=O)O)CC2CCC1C2 (stereo not shown) [BCH, 2-aminobicyclo-(2,2,1)-heptane-2-carboxylic acid, reference compound] | weak |  |  | 
2 | Cl.NC1(C(=O)O)CCc2ccc(Oc3cccc(-c4ccccc4)c3)cc2C1 (stereo not shown) [Example 1-2, 7-([1,1′-biphenyl]-3-yloxy)-2-carboxy-1,2,3,4-tetrahydronaphthalene-2-aminium chloride] |  | A |  | 
3 | Cl.NC1(C(=O)O)CCc2ccc(Oc3ccc4occc4c3)cc2C1 (stereo not shown) [Example 1-3, 7-(benzofuran-5-yloxy)-2-carboxy-1,2,3,4-tetrahydronaphthalene-2-aminium chloride] |  | A |  | 
4 | Cl.NC1(C(=O)O)CCc2ccc(Oc3cccc4ccccc34)cc2C1 (stereo not shown) [Example 1-4, 2-carboxy-7-(naphthalene-1-yloxy)-1,2,3,4-tetrahydronaphthalene-2-aminium chloride] |  | A | ≤ 0.9 | particularly remarkable effects
5 | COc1ccc2ccc(Oc3ccc4c(c3)CC(N)(C(=O)O)CC4)cc2c1.Cl (stereo not shown) [Example 1-5, 2-carboxy-7-((7-methoxynaphthalene-2-yl)oxy)-1,2,3,4-tetrahydronaphthalene-2-aminium chloride] |  | A |  | 
6 | CN(C)c1ccc2cc(Oc3ccc4c(c3)CC(N)(C(=O)O)CC4)ccc2c1 (stereo not shown) [Example 1-6, 2-amino-7-((6-(dimethylamino)naphthalene-2-yl)oxy)-1,2,3,4-tetrahydronaphthalene-2-carboxylic acid] |  | A |  | 
7 | CN(C)c1ccc2ccc(Oc3ccc4c(c3)CC(N)(C(=O)O)CC4)cc2c1 (stereo not shown) [Example 1-7, 2-amino-7-((7-(dimethylamino)naphthalene-2-yl)oxy)-1,2,3,4-tetrahydronaphthalene-2-carboxylic acid] |  | A |  | 
8 | NC1(C(=O)O)CCc2ccc(Oc3ccc4ncccc4c3)cc2C1 (stereo not shown) [Example 1-8, 2-amino-7-(quinoline-6-yloxy)-1,2,3,4-tetrahydronaphthalene-2-carboxylic acid] |  | A |  | 
9 | NC1(C(=O)O)CCc2ccc(Oc3cccc(-c4ccccn4)c3)cc2C1 (stereo not shown) [Example 1-9, 2-amino-7-(3-(pyridine-2-yl)phenoxy)-1,2,3,4-tetrahydronaphthalene-2-carboxylic acid] |  | A |  | 
10 | Cl.NC1(C(=O)O)CCc2ccc(Oc3cccc(-c4ccc(Cl)cc4)c3)cc2C1 (stereo not shown) [Example 1-10, 2-carboxy-7-((4′-chloro-[1,1′-biphenyl]-3-yl)oxy)-1,2,3,4-tetrahydronaphthalene-2-aminium chloride] |  | A |  | 
11 | Cl.NC1(C(=O)O)CCc2ccc(Oc3cccc(-c4cccc(Cl)c4)c3)cc2C1 (stereo not shown) [Example 1-11, 2-carboxy-7-((3′-chloro-[1,1′-biphenyl]-3-yl)oxy)-1,2,3,4-tetrahydronaphthalene-2-aminium chloride] |  | A |  | 
12 | Cl.NC1(C(=O)O)CCc2ccc(Oc3ccc(-c4ccccc4)cc3)cc2C1 (stereo not shown) [Example 1-12, 7-([1,1′-biphenyl]-4-yloxy)-2-carboxy-1,2,3,4-tetrahydronaphthalene-2-aminium chloride] |  | A |  | 
13 | Cl.NC1(C(=O)O)CCc2ccc(Oc3cccc(-c4ccc5ccccc5c4)c3)cc2C1 (stereo not shown) [Example 1-13, 2-carboxy-7-(3-(naphthalene-2-yl)phenoxy)-1,2,3,4-tetrahydronaphthalene-2-aminium chloride] |  | A |  | 
14 | Cl.NC1(C(=O)O)CCc2ccc(Oc3ccccc3-c3ccccc3)cc2C1 (stereo not shown) [Example 1-16, 7-([1,1′-biphenyl]-2-yloxy)-2-carboxy-1,2,3,4-tetrahydronaphthalene-2-aminium chloride] |  | A | ≤ 0.9 | 
15 | Cl.Cl.NC1(C(=O)O)CCc2ccc(Oc3ccccc3-c3ccccn3)cc2C1 (stereo not shown) [Example 1-32, 2-(2-((7-ammonio-7-carboxy-5,6,7,8-tetrahydronaphthalen-2-yl)oxy)phenyl) pyridin-1-ium chloride] |  | A | 0.9 to 5 | 
16 | COc1cccc(-c2ccccc2Oc2ccc3c(c2)CC(N)(C(=O)O)CC3)c1.Cl (stereo not shown) [Example 1-39, 2-carboxy-7-((3′-methoxy-[1,1′-biphenyl]-2-yl)oxy)-1,2,3,4-tetrahydronaphthalene-2-aminium chloride] |  | A | ≤ 0.9 | 
17 | CCc1cccc(-c2ccccc2Oc2ccc3c(c2)CC(N)(C(=O)O)CC3)c1.Cl (stereo not shown) [Example 1-47, 2-carboxy-7-((3′-ethyl-[1,1′-biphenyl]-2-yl)oxy)-1,2,3,4-tetrahydronaphthalene-2-aminium chloride] |  | A | ≤ 0.9 | 
18 | Cl.NC1(C(=O)O)CCc2ccc(Oc3ccccc3-c3ccc(F)c(F)c3)cc2C1 (stereo not shown) [Example 1-56, 2-carboxy-7-((3′,4′-Difluoro-[1,1′-Biphenyl]-2-yl)oxy)-1,2,3,4-tetrahydronaphthalene-2-aminium chloride] |  | A | ≤ 0.9 | 
19 | COc1cccc2cccc(Oc3ccc4c(c3)CC(N)(C(=O)O)CC4)c12.Cl (stereo not shown) [Example 1-60, 2-carboxy-7-((8-methoxynaphthalen-1-yl)oxy)-1,2,3,4-tetrahydronaphthalen-2-aminium chloride] |  | A | ≤ 0.9 | 
20 | Cl.NC1(C(=O)O)CCc2ccc(Oc3cccc4cccc(-c5ccccc5)c34)cc2C1 (stereo not shown) [Example 1-61, 2-carboxy-7-((8-phenylnaphthalen-1-yl)oxy)-1,2,3,4-tetrahydronaphthalen-2-aminium chloride] |  | A | ≤ 0.9 | 
21 | Cl.NC1(C(=O)O)CCc2ccc(Oc3ccccc3-c3c(F)c(F)c(F)c(F)c3F)cc2C1 (stereo not shown) [Example 1-64, 2-carboxy-7-((2′,3′,4′,5′,6′-pentafluoro-[1,1′-biphenyl]-2-yl)oxy)-1,2,3,4-tetrahydronaphthalene-2-aminium chloride] |  | A | ≤ 0.9 | 
22 | NC1(C(=O)O)CCc2ccc(Oc3ccc([N+](=O)[O-])cc3)cc2C1 (stereo not shown) [Example 1-68, 2-carboxy-7-(4-nitrophenoxy)-1,2,3,4-tetrahydronaphthalene-2-aminium chloride] |  |  | 0.9 to 5 | 
23 | Cl.NC1(C(=O)O)CCc2cc(Oc3ccc4ccccc4c3)ccc2C1 (stereo not shown) [Example 2-1, 2-carboxy-6-(naphthalene-2-yloxy)-1,2,3,4-tetrahydronaphthalene-2-aminium chloride] |  | A |  | 
24 | NC1(C(=O)O)CCc2cc(Oc3ccc(-c4cccnc4)cc3)ccc2C1 (stereo not shown) [Example 2-2, 3-(4-((6-ammonio-6-carboxy-5,6,7,8-tetrahydronaphthalene-2-yl)oxy)phenyl) pyridine-1-ium chloride] |  | B |  | 
